In patent publication US12343326B2, “Psychoactive medicines and their use for treating psychiatric and neurological conditions and disorders” (Transcend Therapeutics, Inc., priority 2021, dated 2025):

Assays:
Experiment in all cases: β-arrestin based GPCR screen (PathHunter / GPCRmax), agonist mode
Format in all cases: cell-based
Parameters in all cases: host or cells: PathHunter cell lines
168 GPCRs [1] = target: 168 GPCRs (Homo sapiens, UniProt P25929); details: NPY1R
Experimental: (§1) For agonist determination, cells were incubated with sample to induce response. […] Vehicle concentration was 1%.

168 GPCRs [2] = target: 168 GPCRs (Homo sapiens, UniProt P21917)
Experimental: as §1

168 GPCRs [3] = target: 168 GPCRs (Homo sapiens, UniProt Q969V1)
Experimental: as §1

168 GPCRs [4] = target: T1, 168 GPCRs (Homo sapiens, UniProt P32247); details: BRS3, Agonist
T1 sequence (P32247 1-399): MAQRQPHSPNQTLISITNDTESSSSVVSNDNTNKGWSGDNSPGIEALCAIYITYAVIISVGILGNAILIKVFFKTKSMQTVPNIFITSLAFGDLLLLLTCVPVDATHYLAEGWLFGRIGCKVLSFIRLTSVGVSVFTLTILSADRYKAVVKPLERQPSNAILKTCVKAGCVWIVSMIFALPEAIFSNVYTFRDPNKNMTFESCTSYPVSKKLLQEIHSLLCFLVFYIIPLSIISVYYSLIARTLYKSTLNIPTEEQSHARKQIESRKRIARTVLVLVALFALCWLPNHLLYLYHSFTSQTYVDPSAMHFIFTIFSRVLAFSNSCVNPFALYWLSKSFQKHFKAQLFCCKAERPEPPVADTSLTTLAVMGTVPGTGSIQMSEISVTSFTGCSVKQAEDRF
Experimental: as §1

168 GPCRs [5] = target: 168 GPCRs (Homo sapiens, UniProt P25105); details: PTAFR
Experimental: as §1

168 GPCRs [6] = target: 168 GPCRs (Homo sapiens, UniProt P29371)
Experimental: as §1

168 GPCRs [7] = target: 168 GPCRs (Homo sapiens, UniProt P49146); details: NPY2R
Experimental: as §1

168 GPCRs [8] = target: 168 GPCRs (Homo sapiens, UniProt P41968); details: MC3R
Experimental: as §1

168 GPCRs [9] = target: 168 GPCRs (Homo sapiens, UniProt P28222); details: HTR1B
Experimental: as §1

168 GPCRs [10] = target: 168 GPCRs (Homo sapiens, UniProt P46663); details: BDKRB1, Agonist
Experimental: as §1

168 GPCRs [11] = target: 168 GPCRs (Homo sapiens, UniProt P21554)
Experimental: as §1

168 GPCRs [12] = target: 168 GPCRs (Homo sapiens, UniProt P07550); details: ADRB2, Agonist
Experimental: as §1

168 GPCRs [13] = target: 168 GPCRs (Homo sapiens, UniProt P32745)
Experimental: as §1

168 GPCRs [14] = target: 168 GPCRs (Homo sapiens, UniProt P55085)
Experimental: as §1

168 GPCRs [15] = target: 168 GPCRs (Homo sapiens, UniProt P32246); details: CCR1, Agonist
Experimental: as §1

168 GPCRs [16] = target: 168 GPCRs (Homo sapiens, UniProt P43220); details: GLP1R
Experimental: as §1

168 GPCRs [17] = target: 168 GPCRs (Homo sapiens, UniProt P34998)
Experimental: as §1

168 GPCRs [18] = target: 168 GPCRs (Homo sapiens, UniProt Q96G91)
Experimental: as §1

168 GPCRs [19] = target: 168 GPCRs (Homo sapiens, UniProt O43603)
Experimental: as §1

168 GPCRs [20] = target: 168 GPCRs (Homo sapiens, UniProt Q9NSD7)
Experimental: as §1

Chain of 168 GPCRs (Homo sapiens, UniProt Q969V1) (Q969V1 whole entry): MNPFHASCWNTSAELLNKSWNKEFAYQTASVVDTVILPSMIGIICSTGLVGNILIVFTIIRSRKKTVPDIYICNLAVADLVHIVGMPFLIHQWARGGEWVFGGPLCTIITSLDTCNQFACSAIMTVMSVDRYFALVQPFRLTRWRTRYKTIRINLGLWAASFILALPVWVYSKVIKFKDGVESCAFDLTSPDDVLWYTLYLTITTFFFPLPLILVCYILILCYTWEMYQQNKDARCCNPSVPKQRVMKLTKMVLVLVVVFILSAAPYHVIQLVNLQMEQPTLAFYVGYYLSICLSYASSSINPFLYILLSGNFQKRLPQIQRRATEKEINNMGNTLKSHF
Chain of 168 GPCRs (Homo sapiens, UniProt P55085) (P55085 26-397): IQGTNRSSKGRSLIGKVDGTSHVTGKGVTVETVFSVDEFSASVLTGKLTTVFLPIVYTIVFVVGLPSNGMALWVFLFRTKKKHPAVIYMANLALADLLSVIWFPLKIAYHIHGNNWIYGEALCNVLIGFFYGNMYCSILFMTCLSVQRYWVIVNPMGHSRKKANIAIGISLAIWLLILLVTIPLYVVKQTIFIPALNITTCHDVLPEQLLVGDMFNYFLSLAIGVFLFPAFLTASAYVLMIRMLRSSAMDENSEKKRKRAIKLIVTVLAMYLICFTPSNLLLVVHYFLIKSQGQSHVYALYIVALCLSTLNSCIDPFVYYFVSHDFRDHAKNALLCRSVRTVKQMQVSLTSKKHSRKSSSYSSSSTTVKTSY
Chain of 168 GPCRs (Homo sapiens, UniProt P32246) (P32246 whole entry): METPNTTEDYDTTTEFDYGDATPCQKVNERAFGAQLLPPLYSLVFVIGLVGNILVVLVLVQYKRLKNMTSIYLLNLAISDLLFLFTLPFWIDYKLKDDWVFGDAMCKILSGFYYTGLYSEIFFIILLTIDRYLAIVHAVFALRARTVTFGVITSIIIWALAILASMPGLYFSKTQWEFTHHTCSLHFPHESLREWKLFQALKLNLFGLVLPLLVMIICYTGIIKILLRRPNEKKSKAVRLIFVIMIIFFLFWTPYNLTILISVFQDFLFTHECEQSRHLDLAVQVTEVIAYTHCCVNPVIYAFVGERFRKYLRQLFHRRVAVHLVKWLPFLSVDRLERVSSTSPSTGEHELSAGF
Chain of 168 GPCRs (Homo sapiens, UniProt P49146) (P49146 whole entry): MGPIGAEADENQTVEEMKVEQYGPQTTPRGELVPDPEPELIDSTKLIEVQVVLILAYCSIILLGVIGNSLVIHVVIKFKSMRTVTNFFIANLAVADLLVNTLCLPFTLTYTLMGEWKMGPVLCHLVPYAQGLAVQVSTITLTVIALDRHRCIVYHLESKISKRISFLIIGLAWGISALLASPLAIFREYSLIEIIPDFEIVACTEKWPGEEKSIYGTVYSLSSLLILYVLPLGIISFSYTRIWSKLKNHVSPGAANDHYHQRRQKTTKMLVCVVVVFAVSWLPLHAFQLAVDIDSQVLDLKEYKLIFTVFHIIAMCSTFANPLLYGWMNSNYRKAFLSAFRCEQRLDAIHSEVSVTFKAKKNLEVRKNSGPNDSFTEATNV
Chain of 168 GPCRs (Homo sapiens, UniProt P29371) (P29371 whole entry): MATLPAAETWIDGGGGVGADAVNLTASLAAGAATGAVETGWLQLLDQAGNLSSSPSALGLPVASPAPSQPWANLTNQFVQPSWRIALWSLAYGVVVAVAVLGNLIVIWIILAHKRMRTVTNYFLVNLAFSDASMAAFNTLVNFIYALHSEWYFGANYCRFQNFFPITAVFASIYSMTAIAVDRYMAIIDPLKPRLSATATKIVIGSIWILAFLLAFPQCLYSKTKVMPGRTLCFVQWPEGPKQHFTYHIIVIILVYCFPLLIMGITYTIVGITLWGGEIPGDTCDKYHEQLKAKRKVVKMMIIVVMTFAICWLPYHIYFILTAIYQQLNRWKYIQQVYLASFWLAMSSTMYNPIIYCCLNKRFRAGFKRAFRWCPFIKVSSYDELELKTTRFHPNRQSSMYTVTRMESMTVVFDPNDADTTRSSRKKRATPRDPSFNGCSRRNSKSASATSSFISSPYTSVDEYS
Chain of 168 GPCRs (Homo sapiens, UniProt P41968) (P41968 whole entry): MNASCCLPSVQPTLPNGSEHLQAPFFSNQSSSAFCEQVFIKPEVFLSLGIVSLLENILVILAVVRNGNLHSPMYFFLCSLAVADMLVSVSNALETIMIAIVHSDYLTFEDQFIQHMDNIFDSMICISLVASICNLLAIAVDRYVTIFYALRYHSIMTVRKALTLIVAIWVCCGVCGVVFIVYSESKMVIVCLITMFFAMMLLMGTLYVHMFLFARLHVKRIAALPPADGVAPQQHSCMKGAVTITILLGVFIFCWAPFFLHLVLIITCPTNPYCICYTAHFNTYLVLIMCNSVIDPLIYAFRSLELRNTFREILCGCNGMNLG
Chain of 168 GPCRs (Homo sapiens, UniProt P25105) (P25105 whole entry): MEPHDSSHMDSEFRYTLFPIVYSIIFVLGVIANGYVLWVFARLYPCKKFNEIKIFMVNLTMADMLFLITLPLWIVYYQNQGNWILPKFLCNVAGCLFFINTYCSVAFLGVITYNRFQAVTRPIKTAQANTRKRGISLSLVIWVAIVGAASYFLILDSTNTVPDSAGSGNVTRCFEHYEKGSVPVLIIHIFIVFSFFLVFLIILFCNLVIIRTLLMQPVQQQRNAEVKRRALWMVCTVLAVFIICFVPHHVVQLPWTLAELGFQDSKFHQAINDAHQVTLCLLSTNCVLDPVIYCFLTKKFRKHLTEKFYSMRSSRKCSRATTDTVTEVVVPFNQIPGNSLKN
Chain of 168 GPCRs (Homo sapiens, UniProt P21917) (P21917 whole entry): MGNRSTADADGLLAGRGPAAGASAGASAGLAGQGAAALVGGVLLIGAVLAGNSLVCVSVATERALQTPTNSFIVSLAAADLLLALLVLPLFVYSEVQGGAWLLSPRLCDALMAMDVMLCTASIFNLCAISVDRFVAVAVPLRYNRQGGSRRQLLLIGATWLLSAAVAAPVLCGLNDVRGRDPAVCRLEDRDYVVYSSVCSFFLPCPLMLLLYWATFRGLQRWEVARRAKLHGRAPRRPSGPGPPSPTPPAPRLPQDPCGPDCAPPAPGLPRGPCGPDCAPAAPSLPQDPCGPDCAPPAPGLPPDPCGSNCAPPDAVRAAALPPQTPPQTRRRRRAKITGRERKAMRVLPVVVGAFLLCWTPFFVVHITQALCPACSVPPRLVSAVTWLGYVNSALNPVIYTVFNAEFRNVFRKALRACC
Chain of 168 GPCRs (Homo sapiens, UniProt Q96G91) (Q96G91 whole entry): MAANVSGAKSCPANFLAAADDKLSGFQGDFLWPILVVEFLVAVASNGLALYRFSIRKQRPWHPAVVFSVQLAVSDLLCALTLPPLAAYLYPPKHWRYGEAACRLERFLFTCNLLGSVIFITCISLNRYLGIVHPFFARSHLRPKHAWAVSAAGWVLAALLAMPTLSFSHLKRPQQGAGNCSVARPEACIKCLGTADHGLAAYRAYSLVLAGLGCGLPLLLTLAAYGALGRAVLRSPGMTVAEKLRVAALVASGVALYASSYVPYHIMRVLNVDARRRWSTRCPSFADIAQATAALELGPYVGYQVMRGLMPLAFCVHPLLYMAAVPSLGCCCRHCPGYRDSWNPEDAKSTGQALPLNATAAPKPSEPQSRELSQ
Chain of 168 GPCRs (Homo sapiens, UniProt O43603) (O43603 whole entry): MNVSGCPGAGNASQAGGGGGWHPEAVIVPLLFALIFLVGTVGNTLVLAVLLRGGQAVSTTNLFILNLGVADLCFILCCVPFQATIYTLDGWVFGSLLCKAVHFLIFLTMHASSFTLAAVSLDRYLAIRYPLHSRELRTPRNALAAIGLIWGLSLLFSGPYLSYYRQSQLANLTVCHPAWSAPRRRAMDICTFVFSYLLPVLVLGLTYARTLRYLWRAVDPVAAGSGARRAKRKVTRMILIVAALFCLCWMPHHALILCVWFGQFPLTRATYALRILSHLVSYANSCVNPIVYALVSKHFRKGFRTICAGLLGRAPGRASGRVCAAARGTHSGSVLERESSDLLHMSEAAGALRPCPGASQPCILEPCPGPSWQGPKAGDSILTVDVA
Chain of 168 GPCRs (Homo sapiens, UniProt Q9NSD7) (Q9NSD7 whole entry): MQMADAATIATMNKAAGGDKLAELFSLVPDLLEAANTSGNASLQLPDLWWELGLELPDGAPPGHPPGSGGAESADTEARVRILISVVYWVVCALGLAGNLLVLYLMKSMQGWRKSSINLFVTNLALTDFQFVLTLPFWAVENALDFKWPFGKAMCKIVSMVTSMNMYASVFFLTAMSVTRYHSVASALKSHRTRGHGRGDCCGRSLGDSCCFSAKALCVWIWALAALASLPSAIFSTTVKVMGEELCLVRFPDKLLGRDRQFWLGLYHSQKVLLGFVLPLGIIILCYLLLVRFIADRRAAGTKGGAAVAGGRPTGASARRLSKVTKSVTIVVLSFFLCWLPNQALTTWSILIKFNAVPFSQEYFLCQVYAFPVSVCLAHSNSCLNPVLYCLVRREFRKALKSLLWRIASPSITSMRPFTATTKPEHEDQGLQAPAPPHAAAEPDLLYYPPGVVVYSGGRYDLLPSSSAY
Chain of 168 GPCRs (Homo sapiens, UniProt P07550) (P07550 whole entry): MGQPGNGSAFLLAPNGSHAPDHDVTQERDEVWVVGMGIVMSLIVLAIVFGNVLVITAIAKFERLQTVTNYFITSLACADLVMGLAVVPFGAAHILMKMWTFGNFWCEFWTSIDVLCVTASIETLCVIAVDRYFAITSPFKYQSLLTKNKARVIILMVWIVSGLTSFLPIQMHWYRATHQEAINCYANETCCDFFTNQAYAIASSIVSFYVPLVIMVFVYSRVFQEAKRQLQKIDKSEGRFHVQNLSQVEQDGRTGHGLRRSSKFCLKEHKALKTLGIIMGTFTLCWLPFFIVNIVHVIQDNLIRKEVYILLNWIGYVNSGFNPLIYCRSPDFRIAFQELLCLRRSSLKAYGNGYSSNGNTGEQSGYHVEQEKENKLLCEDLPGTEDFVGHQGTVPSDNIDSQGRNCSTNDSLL

CNC(C)C(=O)c1ccc2c(c1)OCO2 (stereo not shown) [methylone, 3,4-methylenedioxy-N-methylcathinone]
activity at 10 µM (168 GPCRs [1]; Agonist mode, 10 uM): -4.9% | activity at 1 µM (168 GPCRs [1]; Agonist, 1 uM): -2.2% | activity at 10 µM (168 GPCRs [2]; DRD4, Agonist mode, 10 uM): 9.4% | activity at 1 µM (168 GPCRs [2]; DRD4, Agonist, 1 uM): -8% | activity at 10 µM (168 GPCRs [3]; MCHR2, Agonist mode, 10 uM): -0.7% | activity at 1 µM (168 GPCRs [3]; MCHR2, Agonist, 1 uM): -1.5% | activity at 1 µM (168 GPCRs [4]; 1 uM): 4.5% | activity at 10 µM (168 GPCRs [4]; 10 uM): -4.6% | activity at 10 µM (168 GPCRs [5]; Agonist mode, 10 uM): -2.6% | activity at 1 µM (168 GPCRs [5]; Agonist, 1 uM): -1.3% | activity at 10 µM (168 GPCRs [6]; TACR3, Agonist mode, 10 uM): 1.1% | activity at 1 µM (168 GPCRs [6]; TACR3, Agonist, 1 uM): 0.8% | activity at 10 µM (168 GPCRs [7]; Agonist mode, 10 uM): 0.2% | activity at 1 µM (168 GPCRs [7]; Agonist, 1 uM): -0.1% | activity at 10 µM (168 GPCRs [8]; Agonist mode, 10 uM): -1.8% | activity at 1 µM (168 GPCRs [8]; Agonist, 1 uM): -3.2% | activity at 10 µM (168 GPCRs [9]; Agonist mode, 10 uM): 6.7% | activity at 1 µM (168 GPCRs [9]; Agonist, 1 uM): 3.3% | activity at 1 µM (168 GPCRs [10]; 1 uM): -1.7% | activity at 10 µM (168 GPCRs [10]; 10 uM): -2.5% | activity at 10 µM (168 GPCRs [11]; CNR1, Agonist mode, 10 uM): -2.7% | activity at 1 µM (168 GPCRs [11]; CNR1, Agonist, 1 uM): -0.4% | activity at 1 µM (168 GPCRs [12]; 1 uM): 0% | activity at 10 µM (168 GPCRs [12]; 10 uM): -0.2% | activity at 10 µM (168 GPCRs [13]; SSTR3, Agonist mode, 10 uM): 0.3% | activity at 1 µM (168 GPCRs [13]; SSTR3, Agonist, 1 uM): 0.7% | activity at 10 µM (168 GPCRs [14]; F2RL1, Agonist mode, 10 uM): 3.8% | activity at 1 µM (168 GPCRs [14]; F2RL1, Agonist, 1 uM): -0.6% | activity at 1 µM (168 GPCRs [15]; 1 uM): -2.6% | activity at 10 µM (168 GPCRs [15]; 10 uM): 3.6% | activity at 10 µM (168 GPCRs [16]; Agonist mode, 10 uM): -0.1% | activity at 1 µM (168 GPCRs [16]; Agonist, 1 uM): -0.3% | activity at 10 µM (168 GPCRs [17]; CRHR1, Agonist mode, 10 uM): 1.1% | activity at 1 µM (168 GPCRs [17]; CRHR1, Agonist, 1 uM): 1.4% | activity at 10 µM (168 GPCRs [18]; P2RY11, Agonist mode, 10 uM): -0.3% | activity at 1 µM (168 GPCRs [18]; P2RY11, Agonist, 1 uM): 0.5% | activity at 10 µM (168 GPCRs [19]; GALR2, Agonist mode, 10 uM): 1.9% | activity at 1 µM (168 GPCRs [19]; GALR2, Agonist, 1 uM): 3.4% | activity at 10 µM (168 GPCRs [20]; RXFP3, Agonist mode, 10 uM): -8.7% | activity at 1 µM (168 GPCRs [20]; RXFP3, Agonist, 1 uM): -7.6%
